#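 Method: 48-hour compound exposure of cells in 96-well plates, five concentrations, linear interpolation of endpoints. Definition used: TGI = concentration required for complete inhibition of growth.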
# How the values were obtained:
# Assay in all cases: NCI tumour cell line growth inhibition, 48 h
# RXF 393 renal = system: RXF 393 renal
# DLD-1 colon = system: DLD-1 colon
# 786-0 renal = system: 786-0 renal
# NCI-H522 lung = system: NCI-H522 lung
# M14 melanoma = system: M14 melanoma
# SF-539 CNS = system: SF-539 CNS
# SNB-75 CNS = system: SNB-75 CNS
# SNB-19 CNS = system: SNB-19 CNS
# ACHN renal = system: ACHN renal
# SK-MEL-2 melanoma = system: SK-MEL-2 melanoma
# NCI-H460 lung = system: NCI-H460 lung
# SF-295 CNS = system: SF-295 CNS
# UACC-257 melanoma = system: UACC-257 melanoma
# UO-31 renal = system: UO-31 renal
# HCC-2998 colon = system: HCC-2998 colon
# HOP-62 NSCLC = system: HOP-62 NSCLC
# SW-620 colon = system: SW-620 colon
# RXF-631 renal = system: RXF-631 renal
# LOX IMVI melanoma = system: LOX IMVI melanoma
# MALME-3M melanoma = system: MALME-3M melanoma
# HCT-15 colon = system: HCT-15 colon
# SF-268 CNS = system: SF-268 CNS
# XF 498 CNS = system: XF 498 CNS
# NCI-H226 lung = system: NCI-H226 lung
# DMS 114 small cell lung = system: DMS 114 small cell lung
# HOP-92 NSCLC = system: HOP-92 NSCLC
# OVCAR-4 ovarian = system: OVCAR-4 ovarian
# UACC-62 melanoma = system: UACC-62 melanoma
# IGROV1 ovarian = system: IGROV1 ovarian
# CAKI-1 renal = system: CAKI-1 renal
# HCT-116 colon = system: HCT-116 colon
# A549 NSCLC = system: A549 NSCLC
# OVCAR-8 ovarian = system: OVCAR-8 ovarian
# K-562 leukemia = system: K-562 leukemia
# HT29 colon = system: HT29 colon
# OVCAR-3 ovarian = system: OVCAR-3 ovarian
# A498 renal = system: A498 renal
# CCRF-CEM leukemia = system: CCRF-CEM leukemia
# RPMI-8226 leukemia = system: RPMI-8226 leukemia
# COLO 205 colon = system: COLO 205 colon
# EKVX NSCLC = system: EKVX NSCLC
# HOP-18 NSCLC = system: HOP-18 NSCLC
# SK-MEL-28 melanoma = system: SK-MEL-28 melanoma
# U251 CNS = system: U251 CNS
# OVCAR-5 ovarian = system: OVCAR-5 ovarian
# KM12 colon = system: KM12 colon
# TK-10 renal = system: TK-10 renal
# SK-OV-3 ovarian = system: SK-OV-3 ovarian
# SN12C renal = system: SN12C renal
# MOLT-4 leukemia = system: MOLT-4 leukemia
# NCI-H23 lung = system: NCI-H23 lung
# KM20L2 colon = system: KM20L2 colon
# HL-60(TB) leukemia = system: HL-60(TB) leukemia
# SK-MEL-5 melanoma = system: SK-MEL-5 melanoma
# DMS 273 small cell lung = system: DMS 273 small cell lung
# M19-MEL melanoma = system: M19-MEL melanoma
# SR leukemia = system: SR leukemia
# LXFL 529 NSCLC = system: LXFL 529 NSCLC
# SNB-78 CNS = system: SNB-78 CNS
compound,measurement,setting,value
Cc1c(Cl)ccc2c1NC(=O)C2(O)CC(=O)c1ccc2ccccc2c1 (centres undefined),TGI,RXF 393 renal,88.9 µM
same,TGI,DLD-1 colon,> 100 µM
same,TGI,786-0 renal,> 100 µM
same,TGI,NCI-H522 lung,61.7 µM
same,TGI,M14 melanoma,> 100 µM
same,TGI,SF-539 CNS,> 100 µM
same,TGI,SNB-75 CNS,54.2 µM
same,TGI,SNB-19 CNS,> 100 µM
same,TGI,ACHN renal,> 100 µM
same,TGI,SK-MEL-2 melanoma,> 100 µM
same,TGI,NCI-H460 lung,> 100 µM
same,TGI,SF-295 CNS,> 100 µM
same,TGI,UACC-257 melanoma,> 100 µM
same,TGI,UO-31 renal,> 100 µM
same,TGI,HCC-2998 colon,> 100 µM
same,TGI,HOP-62 NSCLC,> 100 µM
same,TGI,SW-620 colon,> 100 µM
same,TGI,RXF-631 renal,> 100 µM
same,TGI,LOX IMVI melanoma,> 100 µM
same,TGI,MALME-3M melanoma,> 100 µM
same,TGI,HCT-15 colon,> 100 µM
same,TGI,SF-268 CNS,> 100 µM
same,TGI,XF 498 CNS,> 100 µM
same,TGI,NCI-H226 lung,> 100 µM
same,TGI,DMS 114 small cell lung,58.4 µM
same,TGI,HOP-92 NSCLC,> 100 µM
same,TGI,OVCAR-4 ovarian,> 100 µM
same,TGI,UACC-62 melanoma,> 100 µM
same,TGI,IGROV1 ovarian,> 100 µM
same,TGI,CAKI-1 renal,> 100 µM
same,TGI,HCT-116 colon,> 100 µM
same,TGI,A549 NSCLC,> 100 µM
same,TGI,OVCAR-8 ovarian,> 100 µM
same,TGI,K-562 leukemia,> 100 µM
same,TGI,HT29 colon,> 100 µM
same,TGI,OVCAR-3 ovarian,> 100 µM
same,TGI,A498 renal,> 100 µM
same,TGI,CCRF-CEM leukemia,> 100 µM
same,TGI,RPMI-8226 leukemia,46.7 µM
same,TGI,COLO 205 colon,> 100 µM
same,TGI,EKVX NSCLC,> 100 µM
same,TGI,HOP-18 NSCLC,> 100 µM
same,TGI,SK-MEL-28 melanoma,> 100 µM
same,TGI,U251 CNS,> 100 µM
same,TGI,OVCAR-5 ovarian,> 100 µM
same,TGI,KM12 colon,> 100 µM
same,TGI,TK-10 renal,> 100 µM
same,TGI,SK-OV-3 ovarian,> 100 µM
same,TGI,SN12C renal,> 100 µM
same,TGI,MOLT-4 leukemia,89.5 µM
same,TGI,NCI-H23 lung,> 100 µM
same,TGI,KM20L2 colon,> 100 µM
Cc1ccccc1OCC(COC(=O)Nc1ccccc1)OC(=O)Nc1ccccc1 (centres undefined),TGI,RXF 393 renal,43.5 µM
same,TGI,DLD-1 colon,> 100 µM
same,TGI,NCI-H522 lung,> 100 µM
same,TGI,M14 melanoma,> 100 µM
same,TGI,SF-539 CNS,15.4 µM
same,TGI,SNB-75 CNS,38.3 µM
same,TGI,SNB-19 CNS,89.4 µM
same,TGI,ACHN renal,> 100 µM
same,TGI,SK-MEL-2 melanoma,> 100 µM
same,TGI,HL-60(TB) leukemia,68.7 µM
same,TGI,NCI-H460 lung,> 100 µM
same,TGI,SK-MEL-5 melanoma,> 100 µM
same,TGI,SF-295 CNS,> 100 µM
same,TGI,UACC-257 melanoma,> 100 µM
same,TGI,UO-31 renal,> 100 µM
same,TGI,HCC-2998 colon,> 100 µM
same,TGI,HOP-62 NSCLC,> 100 µM
same,TGI,SW-620 colon,> 100 µM
same,TGI,RXF-631 renal,> 100 µM
same,TGI,LOX IMVI melanoma,55.9 µM
same,TGI,MALME-3M melanoma,> 100 µM
same,TGI,HCT-15 colon,> 100 µM
same,TGI,DMS 273 small cell lung,> 100 µM
same,TGI,SF-268 CNS,> 100 µM
same,TGI,NCI-H226 lung,> 100 µM
same,TGI,DMS 114 small cell lung,> 100 µM
same,TGI,HOP-92 NSCLC,38.5 µM
same,TGI,OVCAR-4 ovarian,> 100 µM
same,TGI,UACC-62 melanoma,> 100 µM
same,TGI,IGROV1 ovarian,> 100 µM
same,TGI,M19-MEL melanoma,> 100 µM
same,TGI,CAKI-1 renal,> 100 µM
same,TGI,HCT-116 colon,> 100 µM
same,TGI,A549 NSCLC,> 100 µM
same,TGI,SR leukemia,> 100 µM
same,TGI,OVCAR-8 ovarian,> 100 µM
same,TGI,LXFL 529 NSCLC,> 100 µM
same,TGI,K-562 leukemia,27.8 µM
same,TGI,HT29 colon,> 100 µM
same,TGI,OVCAR-3 ovarian,> 100 µM
same,TGI,A498 renal,> 100 µM
same,TGI,CCRF-CEM leukemia,> 100 µM
same,TGI,RPMI-8226 leukemia,> 100 µM
same,TGI,COLO 205 colon,> 100 µM
same,TGI,EKVX NSCLC,> 100 µM
same,TGI,HOP-18 NSCLC,86.6 µM
same,TGI,SK-MEL-28 melanoma,> 100 µM
same,TGI,U251 CNS,> 100 µM
same,TGI,OVCAR-5 ovarian,> 100 µM
same,TGI,SNB-78 CNS,79 µM
same,TGI,KM12 colon,> 100 µM
same,TGI,TK-10 renal,> 100 µM
same,TGI,SK-OV-3 ovarian,> 100 µM
same,TGI,SN12C renal,> 100 µM
same,TGI,MOLT-4 leukemia,> 100 µM
same,TGI,NCI-H23 lung,> 100 µM
same,TGI,KM20L2 colon,> 100 µM

# Source: PubChem BioAssay (NCI)
